Tests used:
androgen receptor (AR) = molecular target: T1, androgen receptor (AR) (Homo sapiens, UniProt P10275, T878A); assay: Androgen-induced PSA (6.1 kb)-luciferase reporter assay in LNCaP cells (R1881 1 nM); format: cell-based; parameters: endogenous in cells; host or cells: LNCaP; conditions: 24 h, read-out: PSA-Luc IC50 Range
T1 sequence (P10275 1-920 T878A): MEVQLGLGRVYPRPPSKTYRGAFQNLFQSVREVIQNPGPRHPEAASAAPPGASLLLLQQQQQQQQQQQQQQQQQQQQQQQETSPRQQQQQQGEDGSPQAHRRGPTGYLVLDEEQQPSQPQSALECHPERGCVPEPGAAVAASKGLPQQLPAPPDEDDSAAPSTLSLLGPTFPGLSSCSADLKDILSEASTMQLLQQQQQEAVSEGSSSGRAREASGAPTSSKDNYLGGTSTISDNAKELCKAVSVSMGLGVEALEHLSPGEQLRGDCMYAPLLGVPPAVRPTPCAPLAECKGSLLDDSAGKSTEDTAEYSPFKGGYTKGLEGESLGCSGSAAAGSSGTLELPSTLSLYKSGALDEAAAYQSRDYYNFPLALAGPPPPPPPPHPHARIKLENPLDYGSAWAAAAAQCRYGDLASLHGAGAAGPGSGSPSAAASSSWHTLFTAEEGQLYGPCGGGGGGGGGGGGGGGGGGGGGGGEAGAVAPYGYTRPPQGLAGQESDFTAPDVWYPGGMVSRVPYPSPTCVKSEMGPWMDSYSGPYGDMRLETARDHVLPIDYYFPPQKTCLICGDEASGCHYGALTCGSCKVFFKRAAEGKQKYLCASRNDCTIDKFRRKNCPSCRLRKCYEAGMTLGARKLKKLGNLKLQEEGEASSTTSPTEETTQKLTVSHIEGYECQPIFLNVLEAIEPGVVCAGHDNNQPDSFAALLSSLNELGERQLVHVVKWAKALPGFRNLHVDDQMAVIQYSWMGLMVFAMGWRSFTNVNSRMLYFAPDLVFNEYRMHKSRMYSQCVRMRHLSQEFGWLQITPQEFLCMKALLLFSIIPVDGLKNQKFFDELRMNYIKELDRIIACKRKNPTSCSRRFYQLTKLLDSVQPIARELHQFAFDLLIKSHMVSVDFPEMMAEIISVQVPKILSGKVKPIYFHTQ
Procedure, shortened: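 Compound or vehicle was added 1 h before 1 nM R1881 to LNCaP cells carrying a transiently transfected (24 h) PSA (6.1 kb)-luciferase reporter. After 24 h androgen exposure, lysate luminescence was normalized to protein and expressed versus vehicle plus R1881 for IC50.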

[1] = Microsomal stability assay, liver microsome half-life (dog); format: in vitro ADME; conditions: pH 7.4; dog liver microsomes 0.5 mg/mL, 1 μM compound, 37° C.; read-out: Liver microsome T1/2 Dog
Text: (§1) Microsomal Stability Assay: Microsomal stability assay is a widely used in vitro model to characterize the metabolic conversion by phase I enzymes, such as cytochrome P450 (CYP) enzymes. Since metabolism is known to be highly variable in different species, microsomal stability assay is commonly run in multiple species. Metabolic stability of testing compound can be evaluated using human, rat, mouse, or other animal liver or intestine microsomes to predict intrinsic clearance.
(§2) The assay was carried out in 96-well microtiter plates at 37° C. Reaction mixtures (25 μL) contained a final concentration of 1 μM test compound, 0.5 mg/mL liver microsomes protein, and 1 mM NADPH and/or 1 mM UDPGA (with alamethicin) in 100 mM potassium phosphate, pH 7.4 buffer with 3 mM MgCl2. The incubation was done with N=1, but duplicate incubation at each time point can be prepared if necessary. At each of the time points (for example, 0, 15, 30, and 60 minutes), 150 μL of quench solution (100% acetonitrile with 0.1% formic acid) with internal standard was transferred to each well. Besides the zero minute controls, mixtures containing the same components except the NADPH can also be prepared as the negative control. Verapamil was included as a positive control to verify assay performance. Plates were sealed, vortexed, and centrifuged at 4° C. for 15 minutes at 4000 rpm. The supernatant is transferred to fresh plates for LC/MS/MS analysis.
(§3) Summarized conditions: [Compound]=1 μM, [LM]=0.5 mg/mL, [NADPH]=1 mM and/or [UDPGA]=1 mM, Buffer=100 mM Potassium Phosphate, pH 7.4 with 3 mM MgCl2, Time=0, 15, 30, and 60 min, and Temperature=37° C.
(§4) All samples were analyzed on LC/MS/MS using an AB Sciex API 4000 instrument, coupled to a Shimadzu LC-20AD LC Pump system. Analytical samples were separated using a Waters Atlantis T3 dC18 reverse phase HPLC column (20 mm×2.1 mm) at a flow rate of 0.5 mL/min. The mobile phase consisted of 0.1% formic acid in water (solvent A) and 0.1% formic acid in 100% acetonitrile (solvent B).
(§5) The extent of metabolism is calculated as the disappearance of the test compound, compared to the 0-min time incubation. Initial rates are calculated for the compound concentration and used to determine half-life (t½).

[2] = Microsomal stability assay, liver microsome half-life (human); format: in vitro ADME; conditions: pH 7.4; human liver microsomes 0.5 mg/mL, 1 μM compound, 37° C.; read-out: Liver microsome T1/2 Human
Text: as §1, §2, §3, §4
(§6) The extent of metabolism is calculated as the disappearance of the test compound, compared to the 0-min time incubation. Initial rates are calculated for the compound concentration and used to determine half-life (t½). […]

[3] = Microsomal stability assay, liver microsome half-life (mouse); format: in vitro ADME; conditions: pH 7.4; mouse liver microsomes 0.5 mg/mL, 1 μM compound, 37° C.; read-out: Liver microsome T1/2 Mouse
Text: as §1, §2, §3, §4, §6

[4] = Microsomal stability assay, liver microsome half-life (rat); format: in vitro ADME; conditions: pH 7.4; rat liver microsomes 0.5 mg/mL, 1 μM compound, 37° C.; read-out: Liver microsome T1/2 Rat
Text: as §1, §2, §3, §4, §6

[5] = Microsomal stability assay, liver microsome half-life (monkey); format: in vitro ADME; conditions: pH 7.4; monkey liver microsomes 0.5 mg/mL, 1 μM compound, 37° C.; read-out: Liver microsome T1/2 Monkey
Text: as §1, §2, §3, §4, §5

| SMILES | IC50 (androgen receptor (AR)) | half-life at 1 μM [1] | half-life at 1 μM [2] | half-life at 1 μM [3] | half-life at 1 μM [4] | half-life at 1 μM [5] |
| --- | --- | --- | --- | --- | --- | --- |
| CS(=O)(=O)NC1CCN(Cc2ccc3c(ccn3-c3cc(Cl)c(OCCCl)c(C#N)c3)c2)CC1(F)F (stereo not drawn) [Compound A239] | 500 to 2000 nM | > 2 h | 1.88 h | > 2 h | > 2 h | 0.65 h |
| CC(C)(c1ccc(-c2ccc3nc(NS(C)(=O)=O)oc3c2)cc1)c1cc(Cl)c(OCCCl)c(C#N)c1 [Compound A254] | 500 to 2000 nM | > 2 h | > 2 h | > 2 h | > 2 h | > 2 h |
| CS(=O)(=O)N[C@H]1C[C@H](COc2ccc3c(ccn3-c3cc(Cl)c(OCCCl)c(C#N)c3)c2)C1 [Compound A135] | 500 to 2000 nM | > 2 h | > 2 h | 1.97 h | > 2 h | 0.733 h |
| CS(=O)(=O)Nc1ncc(Cn2ncc3c(-c4cc(Cl)c(OCCCl)c(C#N)c4)cccc32)cn1 [Compound A144] | 500 to 2000 nM | > 2 h | > 2 h | > 2 h | > 2 h | > 2 h |
| CS(=O)(=O)Nc1cnc2cc(-c3ccc4c(c3)CCC4c3cc(Cl)c(OCCCl)c(C#N)c3)ccc2n1 (stereo not drawn) [Compound A270] | 500 to 2000 nM | > 2 h | > 2 h | > 2 h | > 2 h | > 2 h |
| CS(=O)(=O)Nc1nccc(COc2ccc3c(c2)CCC3c2cc(Cl)c(OCCCl)c(C#N)c2)n1 (stereo not drawn) [Compound A35, N-(4-(((1-(3-chloro-4-(2-chloroethoxy)-5-cyanophenyl)-2,3-dihydro-1H-inden-5-yl)oxy)methyl)pyrimidin-2-yl)methanesulfonamide] | 500 to 2000 nM | > 2 h | > 2 h | > 2 h | > 2 h | > 2 h |
| COc1c(Cl)cc(C(C)(C)c2ccc(-c3ccc4nc(NS(C)(=O)=O)cnc4c3)cc2)cc1C#N [Compound A269] | > 2000 nM | 1.32 h | > 2 h | > 2 h | > 2 h | > 2 h |

Next, values leading:

| IC50 (androgen receptor (AR)) | half-life at 1 μM [1] | half-life at 1 μM [2] | half-life at 1 μM [3] | half-life at 1 μM [4] | half-life at 1 μM [5] | SMILES |
| --- | --- | --- | --- | --- | --- | --- |
| < 500 nM | 1.78 h | > 2 h | > 2 h | > 2 h | > 2 h | CC(C)(c1ccc(-c2ccc3nc(NS(C)(=O)=O)ncc3c2)cc1)c1cc(Cl)c(OCCCl)c(C#N)c1 [Compound A51, N-[6-(4-{2-[3-chloro-4-(2-chloroethoxy)-5-cyanophenyl]propan-2-yl}phenyl)quinazolin-2-yl]methanesulfonamide] |
| 500 to 2000 nM | > 2 h | > 2 h | > 2 h | > 2 h | 0.8 h | C[C@@H](Oc1ccc(C(C)(C)c2cc(Cl)c(OCCCl)c(C#N)c2)cc1)C12CC(NS(C)(=O)=O)(C1)C2 [Compound A264] |
| < 500 nM | 1.48 h | 1.97 h | > 2 h | > 2 h | > 2 h | CC(C)(c1ccc(-c2cnc3nc(NS(C)(=O)=O)ccc3c2)cc1)c1cc(Cl)c(OCCCl)c(C#N)c1 [Compound A194] |
| 500 to 2000 nM | 0.967 h | > 2 h | > 2 h | > 2 h | 0.75 h | CC(Oc1ccc2c(ccn2-c2cc(Cl)c(OCCCl)c(C#N)c2)c1)C12CC(NS(C)(=O)=O)(C1)C2 (stereo not drawn) [Compound A180] |
| < 500 nM | > 2 h | > 2 h | > 2 h | > 2 h | > 2 h | CC(C)(c1ccc(-c2ccc3nc(NS(C)(=O)=O)ccc3n2)cc1)c1cc(Cl)c(OCCCl)c(C#N)c1 [Compound A191] |
